Key:
[1] = species on record: Rattus norvegicus; test: DrugMatrix - Regimen: Daily Repeat; assay type: toxicity, organism-based, Sprague-Dawley; design: regimen Daily Repeat, gender Male, age 6-8 weeks; conditions: in vivo, po, 75 mg/kg, route oral GAVAGE, dose level High, vehicle .5 % CMC
[2] = species on record: Rattus norvegicus; assay type: toxicity, organism-based, Sprague-Dawley; conditions: in vivo, po, 75 mg/kg, 24 h, route oral GAVAGE, dose level High, time 1 day, vehicle .5 % CMC
Description: DrugMatrix - Regimen: Single

[3] = […], tissue Plasma, time 14 day

In the case of `Nc1ccc(Cl)cc1` [4-CHLOROANILINE], the “URIC ACID” value ([1]; 120 h, tissue Plasma, time 5 day) is reported as 1.87 mg/dL, the “ABSOLUTE BASOPHIL” value ([1]; […], tissue Blood, time 14 day) is reported as 0 CELLS/uL and the “ABSOLUTE EOSINOPHIL” value ([1]; […], tissue Blood, time 14 day) is reported as 83.2 CELLS/uL. For the same compound, the “ABSOLUTE LYMPHOCYTE” value ([1]; […], tissue Blood, time 14 day) was 19196.8 CELLS/uL, the “ABSOLUTE MONOCYTE” value ([1]; […], tissue Blood, time 14 day) was 524.8 CELLS/uL and the “ABSOLUTE SEGMENTED NEUTROPHIL” value ([1]; […], tissue Blood, time 14 day) was 2275.2 CELLS/uL. The BASOPHIL ([1]; […], tissue Blood, time 14 day) was 0%, the EOSINOPHIL ([1]; […], tissue Blood, time 14 day) was 0.4% and the “ERYTHROCYTE COUNT” value ([1]; […], tissue Blood, time 14 day) was 3.73 x10E6/uL. The HEMATOCRIT ([1]; […], tissue Blood, time 14 day) was 34.9%, the HEMOGLOBIN ([1]; […], tissue Blood, time 14 day) was 13.26 G/DL and the “LEUKOCYTE COUNT” value ([1]; […], tissue Blood, time 14 day) was 22.08 x10E3/uL. The LYMPHOCYTE ([1]; […], tissue Blood, time 14 day) was 86.8%, the “MEAN CORPUSCULAR HEMOGLOBIN” value ([1]; […], tissue Blood, time 14 day) was 35.82 pg and the “MEAN CORPUSCULAR HEMOGLOBIN CONCENTRATION” value ([1]; […], tissue Blood, time 14 day) was 38.02 G/DL. The “MEAN CORPUSCULAR VOLUME” value ([1]; […], tissue Blood, time 14 day) was 94.18 fL, the MONOCYTE ([1]; […], tissue Blood, time 14 day) was 2.4% and the NEUTROPHIL ([1]; […], tissue Blood, time 14 day) was 10.4%. For the same compound, the “NUCLEATED RED BLOOD CELLS” value ([1]; […], tissue Blood, time 14 day) was 1 /100WBC, the “PLATELET COUNT” value ([1]; […], tissue Blood, time 14 day) was 846.6 x10E3/uL and the “ALANINE AMINOTRANSFERASE” value [1, 3] was 56.6 u/L. The ALBUMIN [1, 3] was 4.38 G/DL, the “ALKALINE PHOSPHATASE” value [1, 3] was 320.6 u/L and the “ASPARTATE AMINOTRANSFERASE” value [1, 3] was 128 u/L. For the same compound, the “BLOOD UREA NITROGEN” value [1, 3] was 15.4 mg/dL, the “CARBON DIOXIDE” value [1, 3] was 29.8 mmol/L and the CHLORIDE [1, 3] was 103.2 MEQ/L. For the same compound, the CHOLESTEROL [1, 3] was 57 mg/dL, the CREATININE [1, 3] was 0.22 mg/dL and the GLUCOSE [1, 3] was 123.8 mg/dL. The “LACTATE DEHYDROGENASE” value [1, 3] was 440.6 u/L, the LIPASE [1, 3] was 9.6 u/L and the PHOSPHORUS [1, 3] was 10.5 mg/dL. For the same compound, the POTASSIUM [1, 3] was 6.12 MEQ/L, the SODIUM [1, 3] was 148.96 MEQ/L and the “TOTAL BILIRUBIN” value [1, 3] was 0.54 mg/dL. For the same compound, the “TOTAL PROTEIN” value [1, 3] was 6.16 G/DL, the “URIC ACID” value [1, 3] was 1.72 mg/dL and the “ABSOLUTE EOSINOPHIL” value ([2]; tissue Blood) was 269 CELLS/uL. The “ABSOLUTE LYMPHOCYTE” value ([2]; tissue Blood) was 17566.67 CELLS/uL, the “ABSOLUTE MONOCYTE” value ([2]; tissue Blood) was 600.33 CELLS/uL and the “ABSOLUTE SEGMENTED NEUTROPHIL” value ([2]; tissue Blood) was 3397.33 CELLS/uL. The BASOPHIL ([2]; tissue Blood) was 0%, the EOSINOPHIL ([2]; tissue Blood) was 1.33% and the “ERYTHROCYTE COUNT” value ([2]; tissue Blood) was 5.88 x10E6/uL. The HEMATOCRIT ([2]; tissue Blood) was 36.53%, the HEMOGLOBIN ([2]; tissue Blood) was 13.03 G/DL and the “LEUKOCYTE COUNT” value ([2]; tissue Blood) was 21.83 x10E3/uL. The LYMPHOCYTE ([2]; tissue Blood) was 81.67%, the “MEAN CORPUSCULAR HEMOGLOBIN” value ([2]; tissue Blood) was 22.17 pg and the “MEAN CORPUSCULAR HEMOGLOBIN CONCENTRATION” value ([2]; tissue Blood) was 35.7 G/DL. For the same compound, the “MEAN CORPUSCULAR VOLUME” value ([2]; tissue Blood) was 62.13 fL, the MONOCYTE ([2]; tissue Blood) was 2.67% and the NEUTROPHIL ([2]; tissue Blood) was 14.33%. For the same compound, the “NUCLEATED RED BLOOD CELLS” value ([2]; tissue Blood) was 0 /100WBC, the “PLATELET COUNT” value ([2]; tissue Blood) was 950.67 x10E3/uL and the “ALANINE AMINOTRANSFERASE” value ([2]; tissue Plasma) was 53 u/L. The ALBUMIN ([2]; tissue Plasma) was 4.37 G/DL, the “ALKALINE PHOSPHATASE” value ([2]; tissue Plasma) was 533.33 u/L and the “ASPARTATE AMINOTRANSFERASE” value ([2]; tissue Plasma) was 101 u/L. The “BLOOD UREA NITROGEN” value ([2]; tissue Plasma) was 13.67 mg/dL, the “CARBON DIOXIDE” value ([2]; tissue Plasma) was 25.67 mmol/L and the CHLORIDE ([2]; tissue Plasma) was 102.33 MEQ/L. It also gave a CHOLESTEROL ([2]; tissue Plasma) of 75.33 mg/dL, a CREATININE ([2]; tissue Plasma) of 0.19 mg/dL and a GLUCOSE ([2]; tissue Plasma) of 168 mg/dL. For the same compound, the “LACTATE DEHYDROGENASE” value ([2]; tissue Plasma) was 480 u/L, the LIPASE ([2]; tissue Plasma) was 9.67 u/L and the PHOSPHORUS ([2]; tissue Plasma) was 13.93 mg/dL. The POTASSIUM ([2]; tissue Plasma) was 6.69 MEQ/L, the SODIUM ([2]; tissue Plasma) was 146.3 MEQ/L and the “TOTAL BILIRUBIN” value ([2]; tissue Plasma) was 0.23 mg/dL. The “TOTAL PROTEIN” value ([2]; tissue Plasma) was 6.3 G/DL and the “URIC ACID” value ([2]; tissue Plasma) was 2.2 mg/dL.
